Key:
Type in all cases: functional, Homo sapiens
Set-up in all cases: dose or concentration left out as unconfirmed
[1] = system: Colon cancer organoid; experiment: Identification of compartment-specific drug sensitivities in O20 CRC organoid-stroma F20 CAF co-cultures. Organoid is transduced with Lucferase2-P2A-EGFP lentivirus, fibroblast with Renilla-dsRed lentivirus. Dual-Glo Luciferase assay is used to report viability data.
[2] = system: Colon cancer organoid; experiment: Identification of compartment-specific drug sensitivities in O14 CRC organoid-stroma F14 CAF co-cultures. Organoid is transduced with Lucferase2-P2A-EGFP lentivirus, fibroblast with Renilla-dsRed lentivirus. Dual-Glo Luciferase assay is used to report viability data.
[3] = system: Colon cancer organoid; experiment: Identification of compartment-specific drug sensitivities in O06 CRC organoid-stroma F06 CAF co-cultures. Organoid is transduced with Lucferase2-P2A-EGFP lentivirus, fibroblast with Renilla-dsRed lentivirus. Dual-Glo Luciferase assay is used to report viability data.
[4] = Transduced with Lucferase2-P2A-EGFP lentivirus
[5] = Transduced with Renilla-dsRed lentivirus

SMILES	Cell Viability [1, 4] [%]	Cell Viability [1, 5] [%]	Cell Viability [2, 4] [%]	Cell Viability [2, 5] [%]	Cell Viability [3, 4] [%]	Cell Viability [3, 5] [%]
O=C(c1ccc(C(=O)N2CCC(N3CCCC3)CC2)c(Nc2ccccc2)c1)N1CCC(N2CCCC2)CC1	130.421	96.2949	131.975	97.2232	108.091	96.0319
CCS(=O)(=O)Nc1ccc(Oc2ccc(F)cc2F)c(-c2cn(C)c(=O)c3[nH]ccc23)c1 [MIVEBRESIB]	5.758	64.2458	15.6468	169.821	13.1828	272.686
OCCn1cc(-c2ccc3c(c2)CCC3=NO)c(-c2ccncc2)n1	203.673	70.8995	204.013	111.094	81.3359	109.303
CCC(=O)N[C@@H]1CC[C@H](C(=O)N(C)c2ccc(-c3nc4ccccc4o3)cc2)C1 [BI 99990]	115.817	121.154	98.8872	100.403	102.864	119.997
CCC(=O)N[C@H]1CC[C@@H](C(=O)N(C)c2ccc(-c3nc4ccccc4o3)cc2)C1 [BI 99179]	33.9891	149.12	77.0742	106.772	14.7827	191.434
CN(C)c1ncnc(-c2ccc3nc(Nc4cc(CN5CCN(C(=O)CC(F)(F)F)CC5)ccn4)[nH]c3c2)c1Cl [BAY-440]	123.006	109.622	161.186	109.54	110.52	104.43
CC(C)(O)[C@H](F)CN1Cc2cc(NC(=O)c3cnn4cccnc34)c(N3CCOCC3)cc2C1=O	123.644	88.3121	105.194	83.4987	120.796	89.8431
Clc1cc2c(NC3CCCC3)nnc(-c3ccncc3)c2cc1Cl	149.848	128.6	104.198	96.8835	131.765	133.642
CC(=O)Nc1c(F)cc(C(=O)N[C@H]2CC[C@H](O)CC2)cc1O[C@@H](C)c1ccccc1 [GSK046]	118.485	118.66	96.2623	124.481	141.493	157.689
O=C1c2ccc(Nc3ccc(F)cc3F)cc2CCc2ccc(OC[C@H](O)CO)cc21 [Skepinone-L]	88.6485	86.6611	166.491	75.8508	115.343	88.0925
Cc1c(C(=O)Nc2ccc(Oc3ccnc4[nH]cc(-c5ccccc5)c34)c(F)c2)c(=O)n(-c2ccc(F)cc2)n1C	225.47	22.9382	62.1416	28.9447	73.6786	56.2803
COc1cc(C(=O)N2CC[C@@H](O)[C@@H](N)C2)cc2nc(-c3cc4ccccc4n3CC3CC3)n(C)c12.Cl	99.5485	114.018	110.648	103.392	124.227	121.721
Cn1cc(-c2[nH]c3cc(NC(=O)[C@H](N)C4CCCCC4)cc4c3c2C=NNC4=O)cn1	23.2406	172.741	1.912	87.1489	9.334	180.436
CC(C)(C)c1cc(NC(=O)Nc2ccc(-c3cn4c(n3)sc3cc(OCCN5CCOCC5)ccc34)cc2)no1 [QUIZARTINIB]	58.8072	111.29	48.7226	98.8717	26.1053	134.448
Cn1c(=O)[nH]c2cc(N3C(=O)c4cccc5c(CCCO)ccc(c45)C3=O)ccc21	127.541	89.8045	148.781	92.4291	115.119	110.623
CCNC(=O)c1cc2c(N3CCOCC3C)ccnc2[nH]1 (stereo unspecified)	144.452	100.256	143.994	130.326	130.766	119.513
CN([C@@H]1CCc2c(CC(=O)O)c3ccccc3n2C1)S(=O)(=O)c1ccc(F)cc1 [MK-7246]	94.6909	109.932	114.74	112.48	70.9731	124.085
CN(C)C(=O)/C(C#N)=C/c1ccc(-c2nc3cnc4c(ccn4C)c3n2C2CCCCC2)o1	49.7098	127.191	110.125	86.2886	28.6002	127.582
CC(C)Oc1ccc(-c2c[nH]cc2CN(C)CCO)cc1	114.429	121.653	129.064	102.719	112.392	114.959
Cc1c(C(=O)O)cc(-c2ccc(C3CCNCC3)cc2)c2ccc(-c3ccc(C(F)(F)F)cc3)cc12.Cl	115.772	99.1911	68.1012	79.713	69.2582	93.9723
COc1cc2c(cc1NS(=O)(=O)c1ccc(Br)cc1C)n(C)c(=O)n2C	86.7229	193.757	88.9015	103.244	53.0589	146.987

— ChEMBL document CHEMBL5608141, “Identification of compartment-specific drug sensitivities in CRC organoid-stroma co-cultures” (2024)
